Article PMC2922490 (Bioorganic & medicinal chemistry letters, 2010)

Experiments:
hmGlu4 = hmGlu4 (Homo sapiens, UniProt Q14833)
[1] = format: in vitro ADME; settings: rat microsomes, incubation period of 60 min
[2] = format: in vitro ADME; settings: human microsomes, incubation period of 60 min
[3] = format: in vitro ADME; settings: rat protein binding
[4] = format: in vitro ADME; settings: human protein binding

hmGlu4, sequence (Q14833 33-912): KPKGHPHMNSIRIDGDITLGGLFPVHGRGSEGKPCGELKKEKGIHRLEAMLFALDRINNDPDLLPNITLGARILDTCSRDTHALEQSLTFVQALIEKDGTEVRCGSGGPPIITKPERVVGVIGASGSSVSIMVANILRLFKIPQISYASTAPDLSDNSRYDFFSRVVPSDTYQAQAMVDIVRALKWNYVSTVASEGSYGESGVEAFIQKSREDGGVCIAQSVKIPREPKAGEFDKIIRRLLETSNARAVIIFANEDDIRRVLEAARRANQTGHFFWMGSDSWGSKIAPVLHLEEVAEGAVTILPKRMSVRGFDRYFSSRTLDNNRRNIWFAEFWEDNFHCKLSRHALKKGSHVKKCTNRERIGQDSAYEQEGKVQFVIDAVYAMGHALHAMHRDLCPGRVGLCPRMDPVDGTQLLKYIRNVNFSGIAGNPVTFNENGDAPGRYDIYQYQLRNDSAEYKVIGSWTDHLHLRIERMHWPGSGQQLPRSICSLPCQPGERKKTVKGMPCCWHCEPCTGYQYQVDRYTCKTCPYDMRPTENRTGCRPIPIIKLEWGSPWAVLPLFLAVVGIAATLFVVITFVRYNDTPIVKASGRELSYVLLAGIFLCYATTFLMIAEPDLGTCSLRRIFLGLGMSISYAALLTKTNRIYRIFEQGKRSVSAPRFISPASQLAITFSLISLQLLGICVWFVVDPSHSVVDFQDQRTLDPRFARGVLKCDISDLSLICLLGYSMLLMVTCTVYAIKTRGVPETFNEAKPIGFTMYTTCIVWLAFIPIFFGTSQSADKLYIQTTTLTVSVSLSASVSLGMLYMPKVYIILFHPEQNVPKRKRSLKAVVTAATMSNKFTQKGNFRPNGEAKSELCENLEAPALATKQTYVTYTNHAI

Compound | loss of potency (hmGlu4; relative to the parent compound (13 vs 11; N-Me vs NH sulfonamides)) [fold] | RLM (% remaining) [1] [% remaining] | HLM (% remaining) [2] [% remaining] | PPB (r) (% free) [3] [% free] | PPB (h) (% free) [4] [% free] | increase in potency relative to 4 (hmGlu4; 2-furyl amide of 4 changed to 2-pyridyl amide) [fold] | receptor activation in the absence of glutamate (hmGlu4; mGlu4/Gqi5 CHO cells, absence of an EC20 concentration of glutamate)
O=C(Nc1ccc(Cl)c(S(=O)(=O)Nc2ccccc2Cl)c1)c1ccccn1 [Compound 13] | 36 | 0.05 | 11.9 | – | – | – | –
CN(c1ccccc1Cl)S(=O)(=O)c1ccc(NC(=O)c2ccncn2)cc1 [Compound 9f] | – | 3.3 | 2.5 | 2.7 | 1.7 | – | –
Cc1cc(C)c(NS(=O)(=O)c2ccc(NC(=O)c3ccccn3)cc2)c(C)c1 [Compound 5] | – | 25.8 | – | 0.3 | 0.1 | 30 | does not elicit receptor activation
O=C(Nc1ccc(S(=O)(=O)Nc2ccccc2Cl)c(Cl)c1)c1ccccn1 [Compound 11] | – | 0.02 | 0.63 | – | – | – | –
COc1ccccc1NS(=O)(=O)c1ccc(NC(=O)c2ccccn2)cc1OC [Compound 10] | – | 0.05 | 1.3 | 12.7 | 0.3 | – | –
O=C(Nc1ccc(S(=O)(=O)Nc2ccccc2Cl)cc1)c1ccccn1 [Compound 8b] | – | 0.02 | 0.02 | 0.3 | 0.1 | – | –
O=C(Nc1ccc(S(=O)(=O)Nc2ccccc2Cl)cc1)c1nccs1 [Compound 9d] | – | 1.2 | 0.84 | 0.1 | 0.1 | – | –
CN(c1ccccc1Cl)S(=O)(=O)c1ccc(NC(=O)c2nccs2)cc1 [Compound 9g] | – | 0.08 | 0.1 | 37 | 0.5 | – | –
Cc1cc(C)c(NS(=O)(=O)c2ccc(NC(=O)c3ccco3)cc2)c(C)c1 [Compound 4] | – | 93.3 | – | 8.2 | 2.2 | – | –
